Source: article PMC10372819 (Acta Pharmaceutica Sinica. B, 2023)

Assays:
HIV-1 mutant L100I = test: microbe, parasite or virus in culture; conditions: Human immunodeficiency virus 1, MT4, read-out: EC50 L100I
HIV-1 mutant K103N = test: microbe, parasite or virus in culture; conditions: Human immunodeficiency virus 1, MT4, read-out: EC50 K103N
[1] = Cytotoxicity in uninfected; conditions: human, mock-infected (uninfected) MT-4 cells, CC50, uninfected MT-4 cells, MTT
HIV-1 mutant Y188L = test: microbe, parasite or virus in culture; conditions: Human immunodeficiency virus 1, MT4, read-out: EC50 Y188L
HIV-1 mutant E138K = test: microbe, parasite or virus in culture; conditions: Human immunodeficiency virus 1, MT4, read-out: EC50 E138K
WT HIV-1 [2] = test: microbe, parasite or virus in culture; conditions: Human immunodeficiency virus 1, MT4, read-out: WT EC50
WT HIV-1 [3] = conditions: Selectivity index CC50/EC50 (WT)
WT HIV-1 RT = WT HIV-1 RT (Human immunodeficiency virus type 1 group M subtype B, UniProt P03366); test: biochemical
CYP2D6 = CYP2D6 (Homo sapiens, UniProt P10635); test: biochemical
CYP2D6, sequence (P10635 whole entry): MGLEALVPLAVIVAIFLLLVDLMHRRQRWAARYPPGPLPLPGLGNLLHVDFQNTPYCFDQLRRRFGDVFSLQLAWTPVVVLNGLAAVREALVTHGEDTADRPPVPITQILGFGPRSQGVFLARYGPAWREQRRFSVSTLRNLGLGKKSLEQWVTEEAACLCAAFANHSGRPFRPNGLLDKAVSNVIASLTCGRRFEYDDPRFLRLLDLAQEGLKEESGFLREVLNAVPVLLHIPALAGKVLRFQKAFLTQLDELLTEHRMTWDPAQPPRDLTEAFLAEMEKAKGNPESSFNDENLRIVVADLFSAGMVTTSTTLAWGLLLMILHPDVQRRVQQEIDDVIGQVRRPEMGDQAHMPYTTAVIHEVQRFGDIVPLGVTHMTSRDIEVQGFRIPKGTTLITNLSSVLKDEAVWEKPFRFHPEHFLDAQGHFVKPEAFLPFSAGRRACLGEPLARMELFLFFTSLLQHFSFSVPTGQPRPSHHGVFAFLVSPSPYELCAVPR

SMILES | EC50 (HIV-1 mutant L100I) [nM] | EC50 (HIV-1 mutant K103N) [nM] | CC50 at 5 days [1] [nM] | EC50 (HIV-1 mutant Y188L) [nM] | EC50 (HIV-1 mutant E138K) [nM] | EC50 (WT HIV-1 [2]) [nM] | SI (WT HIV-1 [3]) | IC50 (WT HIV-1 RT) [nM] | IC50 (CYP2D6) [nM]
Cc1ccnc2c1NC(=O)c1cccnc1N2C1CC1 [NVP, nevirapine, reference compound] | 2100 ± 750 | > 10100 | > 15000 | > 15900 | 2100 ± 30 | – | – | – | –
COc1cc(-c2ccc(C#N)cc2)ccc1Oc1nc(Nc2ccc(C#N)cc2)ncc1CO [9c, 4′-((2-((4-Cyanophenyl)amino)-5-(hydroxymethyl)pyrimidin-4-yl)oxy)-3′-methoxy-[1,1′-biphenyl]-4-carbonitrile] | 20.5 ± 1.3 | 6.5 ± 0.2 | 258000 ± 1200 | 137 ± 8.1 | 19.4 ± 4.8 | 1.7 ± 0.1 | 149,540 | 21 ± 8 | –
N#Cc1ccc(Nc2ncc(CO)c(Oc3ccc(-c4cccnc4)cc3F)n2)cc1 [9m, 4-((4-(2-Fluoro-4-(pyridin-3-yl)phenoxy)-5-(hydroxymethyl)pyrimidin-2-yl)amino)benzonitrile] | 13700 ± 1140 | 1690 ± 165 | 178000 ± 32900 | > 178000 | 2490 ± 388 | 306 ± 43.6 | 583 | – | –
N#Cc1ccc(Nc2ncc(CO)c(Oc3ccc(-c4ccc(C#N)cc4)cc3F)n2)cc1 [9d, 4′-((2-((4-Cyanophenyl)amino)-5-(hydroxymethyl)pyrimidin-4-yl)oxy)-3′-fluoro-[1,1′-biphenyl]-4-carbonitrile] | 117 ± 17.7 | 14.4 ± 1.5 | > 45800 | 41800 | 34.9 ± 3.2 | 3.9 ± 0.4 | >11,594 | 33 ± 2 | –
COc1ccc2c(c1)[C@]13CCCC[C@@H]1[C@H](C2)N(C)CC3 [Dextromethorphan] | – | – | – | – | – | – | – | – | 39.7
N#Cc1ccc(Nc2ncc(CO)c(Oc3ccc(-c4ccc(C#N)cc4)cc3Cl)n2)cc1 [9e, 3′-Chloro-4′-((2-((4-cyanophenyl)amino)-5-(hydroxymethyl)pyrimidin-4-yl)oxy)-[1,1′-biphenyl]-4-carbonitrile] | 18.5 ± 3.6 | 3.8 ± 0.2 | > 44100 | 564 ± 97 | 11 ± 2.1 | 2.6 ± 0.5 | >17,021 | 29 ± 3 | –
Cc1cc(C#N)cc(C)c1Oc1nc(Nc2ccc(C#N)cc2)nc(N)c1Br [ETR, etravirine, reference compound] | 7 | 3 | > 4600 | 20 ± 10 | 7 ± 10 | 6 | – | – | –
N#Cc1ccc(Nc2ncc(CO)c(Oc3ccc(-c4ccc(C#N)cc4)cc3C(F)(F)F)n2)cc1 [9f, 4′-((2-((4-Cyanophenyl)amino)-5-(hydroxymethyl)pyrimidin-4-yl)oxy)-3′-(trifluoromethyl)-[1,1′-biphenyl]-4-carbonitrile] | 11.1 ± 0.5 | 3.2 ± 0.6 | 14600 ± 3100 | 85.3 ± 8.4 | 7.9 ± 0.2 | 1.8 ± 0.1 | 7891 | 21 ± 6 | –
Cc1cc(-c2ccc(C#N)cc2)cc(C)c1Oc1nc(Nc2ccc(C#N)cc2)ncc1CO [9a, 4′-((2-((4-Cyanophenyl)amino)-5-(hydroxymethyl)pyrimidin-4-yl)oxy)-3′,5′-dimethyl-[1,1′-biphenyl]-4-carbonitrile] | 6.3 ± 0.3 | 3.2 ± 0.7 | 15600 ± 4600 | 33 ± 4 | 6.5 ± 0.5 | 2.5 ± 0.6 | 6343 | 35 ± 8 | –
